target: T1, STING in THP1 cells (HAQ allele) (Homo sapiens, UniProt Q86WV6, G230A/H232R/R293Q/R71H); experiment: THP-1 competition assay with STING agonist 2′3′-RR-(A)(A) (IRF-3 luciferase reporter); type: cell-based; conditions: not given
T1 construct: host or cells: THP-1 dual reporter cells
Protocol: The scaffold molecules and STING inhibitory compounds as described herein are assayed for their ability to inhibit the induction of STING dependent IFN-β production by an agonist compound in a competition assay. Relative induction of IRF-3 signaling in THP-1 cells (HAQ allele) was measured after stimulating the cells with a mix of a scaffold molecule (or any putative STING antagonist) titrated against a constant concentration of the STING agonist 2′3′-RR-(A)(A) in PB buffer (50 mM HEPES pH 7.5, 100 mM KCl, 3 mM MgCl2, 0.1 mM DTT, 85 mM sucrose, 0.2% BSA, 1 mM ATP, 0.1 mM GTP).
One day prior to performing the assay, THP-1 dual (Invivogen) reporter cells were plated at 500,000 cells/mL in 200 μL per well in a 96-well plate and differentiated overnight with 3 μg/mL phorbal myristate acetate in RPMI medium 1640 (4.5 g/L D-glucose, 2.383 g/L HEPES, 300 mg/L L-glutamine, 1.5 g/L sodium bicarbonate, 110 mg/L sodium pyruvate, 10% heat-inactivated fetal bovine serum, 1× penicillin/streptomycin, 0.1 mg/mL normocin).
On the day of the assay, the media was removed from the wells and replaced with 150 μL of fresh media. The titrations against 2′ 3′-RR-(A)(A) in a final volume of 100 μL were made as follows: two-fold dilutions (2,000 μM-3.9 μM) of the scaffold molecule into PB buffer containing 100 μM 2′3′-RR-(A)(A) for a final concentration of 50 μM 2′3′-RR-(A)(A). Compounds were tested in biological triplicate.
The cells were then stimulated with 25 μL of each titration for 30 minutes at 37° C. in a CO2 incubator. After stimulating, the cells were washed twice, first with 100 μL and then 150 μL of fresh media. After washing, 150 μL of media was added to each well and the cells were incubated for 17 hours overnight at 37° C. in a CO2 incubator.
To detect IRF-3 signaling, 50 μL of luciferase substrate (Invivogen QUANTI-Luc coelenterazine-based luminescence reagent reconstituted in 25 mL water) was added to 10 μL of supernatant from each well in a 96-well white opaque plate. Luminescence was measured using a SpectraMax M3 plate reader (Molecular Devices) and relative fold-induction was calculated as the values obtained from wells containing both the scaffold molecule and 2′3′-RR-(A)(A) divided by the values obtained from wells containing 2′3′-RR-(A)(A) alone. The average of the relative fold-induction was plotted against the log concentration of the antagonist. Agonist compounds 2′3′-RR-(G)(A) and RR-(A)(A) were run as controls in this assay (see FIGS. 2A and 2B).
The results are provided for control compounds in FIGS. 2A and 2B and scaffold molecules in FIGS. […]: 2′3′-SR-(3′OTBS-A)(2′F-A) (FIG. 3A, Comp. 6a), SR-(2′F-A)(2′OTBS-A) (FIG. 3B, Comp. 18a), RR-(2,6-DAP)(2,6-DAP) (FIG. 3C, Comp. 23), RS-(2,6-DAP)(2,6-DAP) (FIG. 3D, Comp. 23a), (6-O-propargyl-G)(G) (FIG. 3E, Comp. 25), RR-(2′F-ibG)(2′F-ibG) (FIG. 3F, Comp. 32), RR-(2′F-C)(2′F-A) (FIG. 3G, Comp. 37), RS-(2′F-C)(2′F-A) (FIG. 3H, Comp. 37a), 3′2′-RR-(ibG)(BzA) (FIG. 3I, Comp. 42), 3′2′-SS-(G)(A) (FIG. 3J, Comp. 43), dithio-3′2′-(2′OTBS-G)(3′OTBS-A) isomer 1 (FIG. 3K, Comp. 49, isomer 1), dithio-3′2′-(2′OTBS-G)(3′OTBS-A) isomer 2 (FIG. 3L, Comp. 49, isomer 2), Beta-L-SS-(A)(A) (FIG. 3M, Comp. 48), Beta-L-RS-(A)(A) (FIG. 3N, Comp. 48a), and Beta-L-RR-(A)(A) (FIG. 3O, Comp. 48b). Isomer 1 and 2 of Compound 49 are different isomers, and are each one of compound 49a, 49b, 49c or 49d.

T1 sequence (Q86WV6 whole entry R71H/G230A/H232R/R293Q): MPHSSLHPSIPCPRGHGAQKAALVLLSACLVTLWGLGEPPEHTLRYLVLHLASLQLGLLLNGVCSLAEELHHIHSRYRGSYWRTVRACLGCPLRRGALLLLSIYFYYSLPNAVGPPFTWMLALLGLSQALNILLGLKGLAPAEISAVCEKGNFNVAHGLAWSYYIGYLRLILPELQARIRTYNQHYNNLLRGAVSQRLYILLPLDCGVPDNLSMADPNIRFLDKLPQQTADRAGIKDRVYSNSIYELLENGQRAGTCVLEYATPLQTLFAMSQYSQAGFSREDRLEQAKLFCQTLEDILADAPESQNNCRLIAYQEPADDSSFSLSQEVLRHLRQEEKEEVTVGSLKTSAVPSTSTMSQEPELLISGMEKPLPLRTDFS

Compound	IC50 [µM]
CC(C)(C)[Si](C)(C)O[C@H]1[C@H]2O[P@@](=O)(S)OC[C@H]3O[C@@H](n4cnc5c(N)ncnc54)[C@H](F)[C@@H]3O[P@](=O)(S)OC[C@H]1O[C@H]2n1cnc2c(N)ncnc21 [Compound 6a, dithio-[SP, RP]-cyclic-[3′OTBS-A(2′,5′)p-2′F-A(3′,5′)p]]	2170

same assay, conditions: 50 μM 2′3′-RR-(A)(A), scaffold 2,000 μM-3.9 μM, without digitonin, IRF-3 reporter; read-out: IC50 inhibition of 2′3′-RR-(A)(A) agonist activity without digitonin in THP1 cells (HAQ allele)

IC50 [µM]	Compound
152	Nc1nc(N)c2ncn([C@@H]3O[C@@H]4CO[P@@](=O)(S)O[C@H]5[C@@H](O)[C@H](n6cnc7c(N)nc(N)nc76)O[C@@H]5CO[P@@](=O)(S)O[C@H]4[C@H]3O)c2n1 [Compound 23, (2R,3R,3aS,5R,7aR,9R,10R,10aS,12R,14aR)-2,9-bis(2,6-diamino-9H-purin-9-yl)-3,10-dihydroxy-5,12-dimercaptooctahydro-2H,7H-difuro[3,2-d:3′,2′-j][1,3,7,9]tetraoxa[2,8]diphosphacyclododecine 5,12-dioxide]
150	Nc1nc(N)c2ncn([C@@H]3O[C@@H]4CO[P@@](=O)(S)O[C@H]5[C@@H](O)[C@H](n6cnc7c(N)nc(N)nc76)O[C@@H]5CO[P@](=O)(S)O[C@H]4[C@H]3O)c2n1 [Compound 23a, (2R,3R,3aS,5R,7aR,9R,10R,10aS,12S,14aR)-2,9-bis(2,6-diamino-9H-purin-9-yl)-3,10-dihydroxy-5,12-dimercaptooctahydro-2H,7H-difuro[3,2-d:3′,2′-j][1,3,7,9]tetraoxa[2,8]diphosphacyclododecine 5,12-dioxide]
803	CC(C)C(=O)Nc1nc2c(ncn2[C@@H]2O[C@@H]3CO[P@@](=O)(S)O[C@H]4[C@@H](F)[C@H](n5cnc6c(=O)[nH]c(NC(=O)C(C)C)nc65)O[C@@H]4CO[P@@](=O)(S)O[C@H]3[C@H]2F)c(=O)[nH]1 [Compound 32, N,N′-(((2R,3R,3aR,5R,7aR,9R,10R,10aR,12R,14aR)-3,10-difluoro-5,12-dimercapto-5,12-dioxidooctahydro-2H, 7H-difuro[3,2-d:3′,2′-j][1,3,7,9]tetraoxa[2,8]diphosphacyclododecine-2,9-diyl)bis(6-oxo-6,9-dihydro-1H-purine-9,2-diyl))bis(2-methylpropanamide)]
4120	Nc1ccn([C@@H]2O[C@@H]3CO[P@@](=O)(S)O[C@H]4[C@@H](F)[C@H](n5cnc6c(N)ncnc65)O[C@@H]4CO[P@@](=O)(S)O[C@H]3[C@H]2F)c(=O)n1 [Compound 37, 4-amino-1-((2R,3R,3aR,5R,7aR,9R,10R,10aR,12R,14aR)-9-(6-amino-9H-purin-9-yl) 3,10-difluoro-5,12-dimercapto 5,12-dioxidooctahydro-2H,7H-difuro[3,2-d:3′,2′-j][1,3,7,9]tetraoxa[2,8]diphosphacyclododecin-2-yl)pyrimidin-2(1H)-one]
3200	Nc1ccn([C@@H]2O[C@@H]3CO[P@](=O)(S)O[C@H]4[C@@H](F)[C@H](n5cnc6c(N)ncnc65)O[C@@H]4CO[P@@](=O)(S)O[C@H]3[C@H]2F)c(=O)n1 [Compound 37a, 4-amino-1-((2R,3R,3aR,5R,7aR,9R,10R, 10aR,12S,14aR)-9-(6-amino-9H-purin-9-yl)-3,10-difluoro-5,12-dimercapto-5,12-dioxidooctahydro-2H,7H-difuro[3,2-d: 3′,2′-j][1,3,7,9]tetraoxa[2,8]diphosphacyclododecin-2-yl)pyrimidin-2(1H)-one]
966	CC(C)C(=O)Nc1nc2c(ncn2[C@@H]2O[C@@H]3CO[P@@](=O)(S)O[C@@H]4[C@H](O)[C@@H](CO[P@@](=O)(S)O[C@H]3[C@H]2O)O[C@H]4n2cnc3c(NC(=O)c4ccccc4)ncnc32)c(=O)[nH]1 [Compound 42, dithio-[RP, RP]-cyclic-[ibG(3′,5′)p-BzA(2′,5′)p]]
4040	Nc1nc2c(ncn2[C@@H]2O[C@@H]3CO[P@](=O)(S)O[C@@H]4[C@H](O)[C@@H](CO[P@](=O)(S)O[C@H]3[C@H]2O)O[C@H]4n2cnc3c(N)ncnc32)c(=O)[nH]1 [Compound 43]
662	Nc1ncnc2c1ncn2[C@H]1O[C@H]2CO[P@](=O)(S)O[C@@H]3[C@H](O)[C@@H](n4cnc5c(N)ncnc54)O[C@H]3CO[P@](=O)(S)O[C@@H]2[C@@H]1O [Compound 48, (2S,3S,3aR,5S,7aS,9S,10S,10aR,12S,14aS)-2,9-bis(6-amino-9H-purin-9-yl)-3,10-dihydroxy-5,12-dimercaptooctahydro-2H,7H-difuro[3,2-d:3′,2′-j][1,3,7,9]tetraoxa[2,8]diphosphacyclododecine 5,12-dioxide]
308	Nc1ncnc2c1ncn2[C@H]1O[C@H]2CO[P@@](=O)(S)O[C@@H]3[C@H](O)[C@@H](n4cnc5c(N)ncnc54)O[C@H]3CO[P@](=O)(S)O[C@@H]2[C@@H]1O [Compound 48a, Triethylammonium (2S,3S,3aR,5R,7aS,9S,10S,10aR,12S,14aS)-2,9-bis(6-amino-9H-purin-9-yl)-3,10-dihydroxyoctahydro-2H, 7H-difuro[3,2-d: 3′,2′-j][1,3,7,9]tetraoxa[2,8]diphosphacyclododecine-5,12-bis(thiolate) 5,12-dioxide]
342	Nc1ncnc2c1ncn2[C@H]1O[C@H]2CO[P@@](=O)(S)O[C@@H]3[C@H](O)[C@@H](n4cnc5c(N)ncnc54)O[C@H]3CO[P@@](=O)(S)O[C@@H]2[C@@H]1O [Compound 48b, triethylammonium (2S,3S,3R,5R,7aS,9S,10S,10aR,12R,14aS)-2,9-bis(6-amino-9H-purin-9-yl)-3,10-dihydroxyoctahydro-2H,7H-difuro[3,2-d: 3′,2′-j][1,3,7,9]tetraoxa[2,8]diphosphacyclododecine-5,12-bis(thiolate) 5,12-dioxide]
5010	C#CCOc1nc(N)nc2c1ncn2[C@@H]1O[C@@H]2COP(=O)(O)O[C@H]3[C@@H](O)[C@H](n4cnc5c(=O)[nH]c(N)nc54)O[C@@H]3COP(=O)(O)O[C@H]2[C@H]1O [compound 25, 2-amino-9-((2R,3R,3aS,7aR,9R,10R,10aS,14aR)-9-(2-amino-6-(prop-2-yn-1-yloxy)-9H-purin-9-yl)-3,5,10,12-tetrahydroxy-5,12-dioxidooctahydro-2H,7H-difuro[3,2-d:3′,2′-j][1,3,7,9]tetraoxa[2,8]diphosphacyclododecin-2-yl)-1,9-dihydro-6H-purin-6-one]
